In assay [1] the target is Tyrosine-protein kinase Lck (Homo sapiens, UniProt P06239). Briefly: Inhibition of human LCK using poly[Glu:Tyr] (4:1) peptide substrate.
In assay [2] the target is T1, Platelet-derived growth factor receptor beta (Homo sapiens, UniProt P09619). Briefly: Inhibition of human PDGFRbeta using poly[Glu:Tyr] (4:1) peptide substrate.
Assay [3] concerns the target T2, Mast/stem cell growth factor receptor Kit (Homo sapiens, UniProt P10721). Kind of assay: Inhibition of human c-Kit using poly[Glu:Tyr] (4:1) peptide substrate.
For assay [4], the target named is Mast/stem cell growth factor receptor Kit (Homo sapiens, UniProt P10721, T670I). Briefly: Inhibition of human c-Kit T670I mutant using poly[Glu:Tyr] (4:1) peptide substrate.
Assay [5] addresses T2, Mast/stem cell growth factor receptor Kit. Briefly: Binding affinity to human c-Kit.
Assay [6] deals with T3, Discoidin domain-containing receptor 2 (Homo sapiens, UniProt Q16832).
T3 sequence (Q16832 whole entry): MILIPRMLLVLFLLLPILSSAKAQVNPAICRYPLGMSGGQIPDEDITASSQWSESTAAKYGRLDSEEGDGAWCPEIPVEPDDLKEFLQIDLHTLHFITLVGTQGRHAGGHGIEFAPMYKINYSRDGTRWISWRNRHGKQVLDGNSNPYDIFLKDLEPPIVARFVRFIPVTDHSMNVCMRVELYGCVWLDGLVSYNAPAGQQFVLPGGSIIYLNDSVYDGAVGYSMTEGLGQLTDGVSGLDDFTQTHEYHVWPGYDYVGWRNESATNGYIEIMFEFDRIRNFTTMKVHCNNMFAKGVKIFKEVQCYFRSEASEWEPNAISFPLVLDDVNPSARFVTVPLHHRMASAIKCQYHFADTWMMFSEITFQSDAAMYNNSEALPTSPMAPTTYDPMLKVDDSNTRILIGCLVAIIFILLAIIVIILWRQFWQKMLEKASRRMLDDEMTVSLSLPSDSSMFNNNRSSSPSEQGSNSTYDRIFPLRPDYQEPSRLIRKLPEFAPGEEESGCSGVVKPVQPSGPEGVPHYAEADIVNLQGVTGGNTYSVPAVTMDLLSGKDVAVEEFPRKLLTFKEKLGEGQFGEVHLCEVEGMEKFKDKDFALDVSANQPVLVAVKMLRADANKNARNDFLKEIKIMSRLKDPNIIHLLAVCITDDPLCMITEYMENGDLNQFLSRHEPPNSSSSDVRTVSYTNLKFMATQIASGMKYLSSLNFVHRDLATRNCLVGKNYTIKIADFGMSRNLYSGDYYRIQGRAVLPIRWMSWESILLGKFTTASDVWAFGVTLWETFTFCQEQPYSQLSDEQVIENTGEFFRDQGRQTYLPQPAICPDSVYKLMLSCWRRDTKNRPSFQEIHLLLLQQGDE
Description: Binding affinity to human DDR2

Assay [7] addresses T4, Receptor-type tyrosine-protein kinase FLT3 (Homo sapiens, UniProt P36888).
T4 sequence (P36888 whole entry): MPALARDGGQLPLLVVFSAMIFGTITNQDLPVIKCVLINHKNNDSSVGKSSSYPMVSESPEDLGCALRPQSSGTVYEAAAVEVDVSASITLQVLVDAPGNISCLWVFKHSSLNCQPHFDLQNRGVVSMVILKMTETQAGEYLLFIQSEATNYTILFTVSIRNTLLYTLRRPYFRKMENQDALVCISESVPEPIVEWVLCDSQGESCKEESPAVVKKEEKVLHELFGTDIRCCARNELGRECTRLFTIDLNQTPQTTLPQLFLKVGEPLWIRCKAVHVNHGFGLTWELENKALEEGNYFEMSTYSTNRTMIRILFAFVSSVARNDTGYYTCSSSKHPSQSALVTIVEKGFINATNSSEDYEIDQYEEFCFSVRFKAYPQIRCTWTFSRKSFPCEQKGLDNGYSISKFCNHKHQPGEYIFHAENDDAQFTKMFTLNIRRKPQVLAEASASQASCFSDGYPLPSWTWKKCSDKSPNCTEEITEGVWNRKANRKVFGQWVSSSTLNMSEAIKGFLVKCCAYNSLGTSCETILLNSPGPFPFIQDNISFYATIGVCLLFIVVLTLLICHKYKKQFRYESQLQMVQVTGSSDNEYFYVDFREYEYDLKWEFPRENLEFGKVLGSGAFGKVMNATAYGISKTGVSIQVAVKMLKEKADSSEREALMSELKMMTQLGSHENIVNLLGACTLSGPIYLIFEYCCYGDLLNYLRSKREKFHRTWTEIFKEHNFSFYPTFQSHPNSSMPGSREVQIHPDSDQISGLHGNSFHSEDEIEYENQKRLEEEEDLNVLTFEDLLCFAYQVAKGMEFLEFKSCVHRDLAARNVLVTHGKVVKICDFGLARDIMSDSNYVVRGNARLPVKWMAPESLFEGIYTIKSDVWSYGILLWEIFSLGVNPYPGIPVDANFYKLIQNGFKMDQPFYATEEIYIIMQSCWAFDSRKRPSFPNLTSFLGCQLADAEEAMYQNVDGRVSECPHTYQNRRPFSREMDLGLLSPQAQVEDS
Briefly: Binding affinity to human FLT3.

Assay [8] deals with Mast/stem cell growth factor receptor Kit (Homo sapiens, UniProt P10721, V654A). Briefly: Inhibition of human c-Kit V654A mutant using poly[Glu:Tyr] (4:1) peptide substrate.
Assay [9] addresses T4, Receptor-type tyrosine-protein kinase FLT3. Kind of assay: Inhibition of human FLT3 using EAIYAAPFAKKK peptide substrate.
Assay [10] has as its target T3, Discoidin domain-containing receptor 2. Briefly: Inhibition of human DDR2 using KKSRGDYMTMQIG peptide substrate.
Assay [11] addresses T1, Platelet-derived growth factor receptor beta. Kind of assay: Binding affinity to human PDGFRbeata.

Chain of Mast/stem cell growth factor receptor Kit (Homo sapiens, UniProt P10721, T670I) (P10721 26-976 T670I limits assumed): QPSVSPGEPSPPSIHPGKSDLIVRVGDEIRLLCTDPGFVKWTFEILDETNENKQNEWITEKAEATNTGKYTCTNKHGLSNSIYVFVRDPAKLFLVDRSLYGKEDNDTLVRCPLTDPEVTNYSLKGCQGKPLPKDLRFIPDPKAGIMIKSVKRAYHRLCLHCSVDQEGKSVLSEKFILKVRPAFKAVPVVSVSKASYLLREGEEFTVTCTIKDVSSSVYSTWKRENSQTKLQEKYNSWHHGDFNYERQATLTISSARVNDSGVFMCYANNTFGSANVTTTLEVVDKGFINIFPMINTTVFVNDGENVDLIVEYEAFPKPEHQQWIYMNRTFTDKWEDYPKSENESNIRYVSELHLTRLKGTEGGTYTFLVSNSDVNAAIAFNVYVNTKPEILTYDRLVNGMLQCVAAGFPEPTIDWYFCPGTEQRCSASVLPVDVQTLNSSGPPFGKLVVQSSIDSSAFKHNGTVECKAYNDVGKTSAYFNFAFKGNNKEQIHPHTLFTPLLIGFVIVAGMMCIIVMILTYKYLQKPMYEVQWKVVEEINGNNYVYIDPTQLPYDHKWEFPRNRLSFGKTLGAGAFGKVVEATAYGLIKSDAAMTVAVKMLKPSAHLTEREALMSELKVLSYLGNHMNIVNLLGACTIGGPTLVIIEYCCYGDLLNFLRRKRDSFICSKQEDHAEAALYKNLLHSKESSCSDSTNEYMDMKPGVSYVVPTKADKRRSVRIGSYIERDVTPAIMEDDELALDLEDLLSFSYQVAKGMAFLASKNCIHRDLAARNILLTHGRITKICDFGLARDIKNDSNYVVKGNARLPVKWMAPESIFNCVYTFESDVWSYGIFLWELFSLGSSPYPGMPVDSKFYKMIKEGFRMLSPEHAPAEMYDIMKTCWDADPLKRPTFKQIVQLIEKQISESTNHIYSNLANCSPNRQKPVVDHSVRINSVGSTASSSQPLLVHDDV
Chain of Tyrosine-protein kinase Lck (P06239 whole entry): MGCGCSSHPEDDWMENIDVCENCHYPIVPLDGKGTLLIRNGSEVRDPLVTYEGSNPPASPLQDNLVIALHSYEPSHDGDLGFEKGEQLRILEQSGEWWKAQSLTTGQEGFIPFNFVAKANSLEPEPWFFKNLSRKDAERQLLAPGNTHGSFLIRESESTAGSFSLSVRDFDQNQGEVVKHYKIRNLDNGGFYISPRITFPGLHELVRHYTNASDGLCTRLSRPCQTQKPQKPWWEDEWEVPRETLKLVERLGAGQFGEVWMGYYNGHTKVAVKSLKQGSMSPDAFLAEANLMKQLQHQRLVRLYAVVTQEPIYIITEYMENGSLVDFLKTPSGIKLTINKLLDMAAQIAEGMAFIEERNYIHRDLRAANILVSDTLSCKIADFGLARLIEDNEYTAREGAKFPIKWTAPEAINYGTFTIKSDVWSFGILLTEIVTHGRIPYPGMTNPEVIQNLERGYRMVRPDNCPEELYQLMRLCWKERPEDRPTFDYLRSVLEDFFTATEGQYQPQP
Chain of Mast/stem cell growth factor receptor Kit (Homo sapiens, UniProt P10721, V654A) (P10721 26-976 V654A limits assumed): as the sequence (P10721 26-976 T670I limits assumed) above, with V629A, I645T counted along it
T1 sequence (P09619 whole entry): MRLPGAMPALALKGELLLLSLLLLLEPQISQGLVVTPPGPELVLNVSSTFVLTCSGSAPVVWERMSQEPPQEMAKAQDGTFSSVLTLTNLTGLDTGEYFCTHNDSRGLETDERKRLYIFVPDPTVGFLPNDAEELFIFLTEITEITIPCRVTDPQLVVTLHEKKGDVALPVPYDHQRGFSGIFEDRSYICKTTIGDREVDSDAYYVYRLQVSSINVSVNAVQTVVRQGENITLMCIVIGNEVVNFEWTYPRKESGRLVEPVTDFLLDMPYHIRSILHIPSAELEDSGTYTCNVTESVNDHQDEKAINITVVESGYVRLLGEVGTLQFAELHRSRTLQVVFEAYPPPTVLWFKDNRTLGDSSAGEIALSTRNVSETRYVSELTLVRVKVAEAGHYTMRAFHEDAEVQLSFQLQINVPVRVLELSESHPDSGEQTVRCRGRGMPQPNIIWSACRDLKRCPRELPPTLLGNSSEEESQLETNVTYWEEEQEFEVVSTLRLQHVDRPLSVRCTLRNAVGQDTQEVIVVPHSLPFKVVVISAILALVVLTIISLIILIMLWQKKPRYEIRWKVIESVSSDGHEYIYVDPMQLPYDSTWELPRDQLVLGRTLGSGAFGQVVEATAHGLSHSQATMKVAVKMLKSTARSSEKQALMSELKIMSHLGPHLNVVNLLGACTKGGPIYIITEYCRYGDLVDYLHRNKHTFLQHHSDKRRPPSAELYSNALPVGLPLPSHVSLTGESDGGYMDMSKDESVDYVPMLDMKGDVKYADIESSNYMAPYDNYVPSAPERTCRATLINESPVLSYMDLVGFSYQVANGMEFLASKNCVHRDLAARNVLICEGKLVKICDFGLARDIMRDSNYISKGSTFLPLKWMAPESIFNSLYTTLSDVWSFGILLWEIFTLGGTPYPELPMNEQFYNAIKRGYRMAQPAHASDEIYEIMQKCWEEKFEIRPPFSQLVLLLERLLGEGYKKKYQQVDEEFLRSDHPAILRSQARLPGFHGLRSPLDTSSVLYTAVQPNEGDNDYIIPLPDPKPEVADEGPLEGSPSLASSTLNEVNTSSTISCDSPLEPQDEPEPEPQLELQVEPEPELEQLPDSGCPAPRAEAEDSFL
T2 sequence (P10721 whole entry): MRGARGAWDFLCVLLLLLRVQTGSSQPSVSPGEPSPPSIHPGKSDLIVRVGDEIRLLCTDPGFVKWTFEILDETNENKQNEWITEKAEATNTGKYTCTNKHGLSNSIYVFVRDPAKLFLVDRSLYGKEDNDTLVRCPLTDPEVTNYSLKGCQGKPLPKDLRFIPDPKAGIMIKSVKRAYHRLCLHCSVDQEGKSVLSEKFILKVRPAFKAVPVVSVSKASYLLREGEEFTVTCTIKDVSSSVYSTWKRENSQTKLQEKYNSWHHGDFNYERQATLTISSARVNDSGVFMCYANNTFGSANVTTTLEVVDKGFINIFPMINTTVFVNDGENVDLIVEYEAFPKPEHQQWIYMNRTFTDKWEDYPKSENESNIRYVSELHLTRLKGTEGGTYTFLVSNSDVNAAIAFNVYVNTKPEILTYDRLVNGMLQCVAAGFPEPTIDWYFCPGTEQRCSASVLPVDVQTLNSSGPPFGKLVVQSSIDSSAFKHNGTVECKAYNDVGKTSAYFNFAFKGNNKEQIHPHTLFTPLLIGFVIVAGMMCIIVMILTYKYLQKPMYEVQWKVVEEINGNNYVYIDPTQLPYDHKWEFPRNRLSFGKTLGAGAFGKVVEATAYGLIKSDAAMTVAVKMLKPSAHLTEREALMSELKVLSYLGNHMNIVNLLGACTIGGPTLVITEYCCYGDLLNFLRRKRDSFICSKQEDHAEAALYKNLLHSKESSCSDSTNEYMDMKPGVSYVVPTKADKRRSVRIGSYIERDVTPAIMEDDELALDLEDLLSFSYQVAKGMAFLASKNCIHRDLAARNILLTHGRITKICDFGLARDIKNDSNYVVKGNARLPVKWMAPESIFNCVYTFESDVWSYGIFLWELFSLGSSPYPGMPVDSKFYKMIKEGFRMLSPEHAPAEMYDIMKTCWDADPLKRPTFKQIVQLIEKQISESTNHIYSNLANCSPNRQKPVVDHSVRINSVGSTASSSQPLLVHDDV

For `Cc1cc(NC(=O)c2ccc(C)c(Nc3nccc(-c4cccnc4)n3)c2)cc(-n2cnc(C)c2)c1`, the IC50 was 1450 nM in assay [1]; 768 nM in assay [2]; 54.9 nM in assay [3]; greater than 1000 nM in [4]; greater than 1000 nM in [8]; 882 nM in [9]. Inhibition in assay [10] was half-maximal at 17.2 nM (IC50). Also, the Kd came out at 14 nM in assay [5], 5.6 nM in [6], 1200 nM in [7] and 12 nM in assay [11].

For the compound `Cc1cn(-c2cc(F)cc(NC(=O)c3ccc(C)c(Nc4nccc(-c5cccnc5)n4)c3)c2)cn1`, the IC50 was 11100 nM in assay [1]; greater than 5000 nM in assay [2]; 9.96 nM in assay [3]; greater than 1000 nM in assay [4]; greater than 400 nM in assay [8]; 118 nM in assay [9]. The compound also gave an IC50 in [10] of 179 nM. Further, the equilibrium dissociation constant (Kd) in assay [5] was 3.5 nM; in assay [6] it was 14 nM; in assay [7], 58 nM; in [11], 8.5 nM.

As to `Cc1cn(-c2cccc(NC(=O)c3ccc(C)c(Nc4nccc(-c5cccnc5)n4)c3)c2)cn1`, the IC50 in assay [1] is 44600 nM; in assay [2] it was 35400 nM; in assay [3], 32.5 nM; in [4], greater than 1000 nM; in assay [8], greater than 1000 nM; in assay [9], 974 nM. This compound also had an IC50 in [10] of 653 nM. In addition, the Kd in assay [5] was found to be 4.4 nM; in assay [6], 320 nM; in [7], 1400 nM; in assay [11], 7.2 nM.

These data come from ChEMBL document CHEMBL2311368 (Bioorg Med Chem Lett, 2013).
